From patent US20070219186A1, “Pyrazolo[1,5-A]pyrimidine derivatives and methods of use thereof” (priority 2006, published 2007) come the findings set out here.

Like-named read-outs stand apart in the source and are kept apart here. Some results are limits rather than exact numbers.

In this test the target is T1, human B-Raf (Homo sapiens, UniProt P15056).
T1 construct: Flag; GST; made in house; host or cells: Sf9 insect cells (B-Raf); E. coli (MEK1-GST)
The test is described as follows: B-Raf Kinase to MEK1 ELISA. It is filed as biochemical. The conditions noted are these: for inhibition at 10 µM: read-out: % Inhib./10 uM. An excerpt: TITLE: B-Raf Kinase to MEK1 ELISA
PURPOSE: To discover B-Raf Kinase inhibitors that can inhibit growth of tumor cells which contain oncogenic forms of Receptor Tyrosine Kinases or K-Ras, or B-Raf kinase.
Reagents: Flag/GST-tagged recombinant human B-Raf produced in Sf9 insect cells, human non-active Mek-1-GST (recombinant protein produced in E. coli); and a phospho-MEK1 specific poly-clonal Ab from Cell Signaling Technology (cat. #9121).
B-Raf1 Kinase Assay Procedure:
B-Raf-1 is used to phosphorylate GST-MEK1. MEK1 phosphorylation is measured by a phospho-specific antibody (from Cell Signaling Technology, cat. #9121) that detects phosphorylation of two serine residues at positions 217 and 221 on MEK1.
B-Raf Assay Stock Solutions:
1. Assay Dilution Buffer (ADB): 20 mM MOPS, pH 7.2, 25 mM β-glycerol phosphate, 5 mM EGTA, 1 mM sodium orthovanadate, 1 mM dithiothreitol.
2. Magnesium/ATP Cocktail: 200 μM cold ATP and 40 mM magnesium chloride in ADB.
3. Active Kinase: Active B-Raf: used at ˜20 ng per assay point.
4. Non-active GST-MEK1: Use at 100 nM (50 nM final).
6. Anti-GST Ab (Pharmacia)
7. Anti-rabbit Ab/Europium conjugate (Wallac)
1. Add 25 μl of ADB containing B-Raf and Mek per assay (i.e. per well of a 96 well plate)
2. Add 25 μl of 0.2 mM ATP and 40 mM magnesium chloride in ADB.
3. Incubate for 60 minutes at RT in a shaking incubator.
4. Transfer this mixture to an anti-GST Ab coated 96 well plate (Nunc Immunosorb plates coated o/n with a-GST.
5. Incubate for 60 minutes at 30° C. in a shaking incubator
6. Wash 3× with TBST, add Anti-Phospho MEK1 (1:1000)
7. Incubate for 60 minutes at 30° C. in a shaking incubator
8. Wash 3× with TBST, add Anti-rabbit Ab/Europium conjugate (Wallac) (1:500)
9. Incubate for 60 minutes at 30° C. in a shaking incubator
10. Add 100 ul of Wallac Delfia Enhancement Solution and shake for 10 minutes.
11. Read plates in Wallac Victor model Plate Reader.
12. Collect data analyze in Excel for single point and IC50 determinations.
Typically Raf-1 assay is run at cpd concentrations from 10 μM to 30 nM in half log dilutions. (% inhibition is determined for each cpd concentration)

[1] abbreviates: median, cpd concentrations from 10 μM to 30 nM in half log dilutions, read-out: Median IC50.

T1 sequence (P15056 whole entry): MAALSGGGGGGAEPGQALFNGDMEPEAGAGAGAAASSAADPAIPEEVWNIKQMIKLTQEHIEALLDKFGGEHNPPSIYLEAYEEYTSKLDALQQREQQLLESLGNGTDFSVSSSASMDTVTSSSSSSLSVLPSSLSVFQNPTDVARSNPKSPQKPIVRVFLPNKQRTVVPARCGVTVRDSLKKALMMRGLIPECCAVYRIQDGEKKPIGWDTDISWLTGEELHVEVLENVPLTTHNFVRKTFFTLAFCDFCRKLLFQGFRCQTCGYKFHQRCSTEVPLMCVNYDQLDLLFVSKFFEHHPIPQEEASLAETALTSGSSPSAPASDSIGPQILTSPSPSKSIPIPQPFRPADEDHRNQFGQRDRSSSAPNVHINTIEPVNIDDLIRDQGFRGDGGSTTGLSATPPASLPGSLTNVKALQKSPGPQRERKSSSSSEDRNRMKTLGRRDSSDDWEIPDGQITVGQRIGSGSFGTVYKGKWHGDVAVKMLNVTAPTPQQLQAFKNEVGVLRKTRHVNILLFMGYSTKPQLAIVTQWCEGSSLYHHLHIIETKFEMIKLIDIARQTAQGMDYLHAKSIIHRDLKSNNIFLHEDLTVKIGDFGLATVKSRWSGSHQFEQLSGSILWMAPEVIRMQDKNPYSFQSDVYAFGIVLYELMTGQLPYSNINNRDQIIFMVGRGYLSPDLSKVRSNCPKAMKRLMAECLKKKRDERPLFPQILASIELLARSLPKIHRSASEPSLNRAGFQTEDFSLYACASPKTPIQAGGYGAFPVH

On to `CC(=O)NCC(=O)Nc1cccc(-c2cnn3c(-c4cccc(NC(=O)c5cccc(C(F)(F)F)c5)c4)ccnc23)c1` [Example 255, N-[3-(3-{3-[(N-acetylglycyl)amino]phenyl}pyrazolo[1,5-a]pyrimidin-7-yl)phenyl]-3-(trifluoromethyl)benzamide], for which the inhibition at 10 µM stood at 91%. Further, the concentration for half-maximal inhibition (IC50) under setting [1] was 0.049 µM. For `CCOC(=O)c1cnn2c(-c3cccc(NC(=O)Nc4ccc(Cl)c(Cl)c4)c3)ccnc12` [Example 40, ethyl 7-[3-({[(3,4-dichlorophenyl)amino]carbonyl}amino)phenyl]pyrazolo[1,5-a]pyrimidine-3-carboxylate], the inhibition at 10 µM was 81%. The IC50 under setting [1] was 0.34 µM. On to `CN(C)CCNC(=O)c1cnn2c(-c3cccc(NC(=O)c4cccc(C(F)(F)F)c4)c3)ccnc12` [Example 49, N-[2-(dimethylamino)ethyl]-7-(3-{[3-(trifluoromethyl)benzoyl]amino}phenyl)pyrazolo[1,5-a]pyrimidine-3-carboxamide], for which the inhibition at 10 µM is 62%. Besides, the IC50 under setting [1] amounted to 5.94 µM.

As to `O=C(Nc1cccc(-c2ccnc3cc(N4CCN(Cc5ccccc5)CC4)nn23)c1)c1cccc(C(F)(F)F)c1` [Example 207, N-{3-[2-(4-benzylpiperazin-1-yl)pyrazolo[1,5-a]pyrimidin-7-yl]phenyl}-3-(trifluoromethyl)benzamide], the inhibition at 10 µM turned out to be 0%. Further, under setting [1], the IC50 is more than 10 µM. Regarding `CCOC(=O)c1cnn2c(-c3cccc(NC(=O)Nc4ccc(C(C)=O)cc4)c3)ccnc12` [Example 19, ethyl 7-[3-({[(4-acetylphenyl)amino]carbonyl}amino)phenyl]pyrazolo[1,5-a]pyrimidine-3-carboxylate], the inhibition at 10 µM is 0%. Moreover, under setting [1], the IC50 is more than 10 µM. As to `O=C(Nc1cccc(-c2ccnc3c(-c4ccc(Cl)cc4)cnn23)c1)c1cccc(C(F)(F)F)c1` [Example 158, N-{3-[3-(4-chlorophenyl)pyrazolo[1,5-a]pyrimidin-7-yl]phenyl}-3-(trifluoromethyl)benzamide], the inhibition at 10 µM came to 39%. Under setting [1], the IC50 is more than 10 µM. Consider `CN(C)CCc1ccccc1-c1cnn2c(-c3cccc(NC(=O)c4cccc(C(F)(F)F)c4)c3)ccnc12` [Example 280, N-[3-(3-{2-[2-(dimethylamino)ethyl]phenyl}pyrazolo[1,5-a]pyrimidin-7-yl)phenyl]-3-(trifluoromethyl)benzamide], for which the inhibition at 10 µM stood at 76%. Also, the IC50 under setting [1] amounted to 0.318 µM.

Consider `O=C(Nc1cccc(-c2ccnc3cc(O)nn23)c1)c1cccc(C(F)(F)F)c1` [Example 250, N-[3-(2-hydroxypyrazolo[1,5-a]pyrimidin-7-yl)phenyl]-3-(trifluoromethyl)benzamide], for which the inhibition at 10 µM was 16%. Under setting [1], the IC50 is more than 10 µM. For `CN1CCCC1CCNC(=O)c1cnn2c(-c3cccc(NC(=O)c4cccc(C(F)(F)F)c4)c3)ccnc12` (centres unmarked) [Example 54, N-[2-(1-methylpyrrolidin-2-yl)ethyl]-7-(3-{[3-(trifluoromethyl)benzoyl]amino}phenyl)pyrazolo[1,5-a]pyrimidine-3-carboxamide], in that order: 32% and more than 10 µM. On to `Cc1ccc(C(=O)Nc2cccc(-c3ccnc4c(-c5cccc(C(=O)N(C)C)c5)cnn34)c2)cc1C(F)(F)F` [Example 183, N-[3-(3-{3-[(dimethylamino)carbonyl]phenyl}pyrazolo[1,5-a]pyrimidin-7-yl)phenyl]-4-methyl-3-(trifluoromethyl)benzamide], for which the IC50 stood at 0.27 µM and the inhibition at 10 µM turned out to be 84%. Regarding `O=C(Nc1cccc(-c2ccnc3c(Br)cnn23)c1)Nc1ccc(Cl)c(Cl)c1` [Example 168, N-[3-(3-bromopyrazolo[1,5-a]pyrimidin-7-yl)phenyl]-N′-(3,4-dichlorophenyl)urea], the inhibition at 10 µM was found to be 58%. The IC50 under setting [1] came out at 2.41 µM. In the case of `O=C(Nc1cccc(-c2ccnc3cc(-c4ccc(F)cc4)nn23)c1)c1cccc(C(F)(F)F)c1` [Example 139, N-{3-[2-(4-fluorophenyl)pyrazolo[1,5-a]pyrimidin-7-yl]phenyl}-3-(trifluoromethyl)benzamide], the inhibition at 10 µM came to 35%. In addition, the IC50 under setting [1] was more than 10 µM.

For `CCOC(=O)c1cnn2c(-c3cccc(NC(=O)c4ccc(F)c(C(F)(F)F)c4)c3)ccnc12` [Example 2, ethyl 7-(3-{[4-fluoro-3-(trifluoromethyl)benzoyl]amino}phenyl)pyrazolo[1,5-a]pyrimidine-3-carboxylate], the inhibition at 10 µM was found to be 84%. In addition, under setting [1], the IC50 was 17 µM.

For `COc1ccc(C(=O)Nc2cccc(-c3ccnc4cc(N5CCOCC5)nn34)c2)cc1C(F)(F)F` [Example 195, 4-methoxy-N-[3-(2-morpholin-4-ylpyrazolo[1,5-a]pyrimidin-7-yl)phenyl]-3-(trifluoromethyl)benzamide], the inhibition at 10 µM turned out to be 93%. Under setting [1], the IC50 is 0.22 µM.

For the molecule “ethyl 7-{3-[(pyridin-3-ylcarbonyl)amino]phenyl}pyrazolo[1,5-a]pyrimidine-3-carboxylate [Example 204]”, under setting [1], the half-inhibitory concentration (IC50) is more than 10 µM. For the setting “single point assay, 10 uM”, the “% Inhib./10 uM” value came to 12%.

As to `CCOC(=O)c1cnn2c(-c3cccc(NC(=O)c4cc(C(F)(F)F)ccc4C)c3)ccnc12` [Example 104, ethyl 7-(3-{[2-methyl-5-(trifluoromethyl)benzoyl]amino}phenyl)pyrazolo[1,5-a]pyrimidine-3-carboxylate], the IC50 under setting [1] is 10.1 µM. The inhibition at 10 µM (single point assay, 10 uM) turned out to be 1%. Turning to `Cc1ccc(C(=O)Nc2cccc(-c3ccnc4c(-c5ccncc5)cnn34)c2)cc1C(F)(F)F` [Example 188, 4-methyl-N-[3-(3-pyridin-4-ylpyrazolo[1,5-a]pyrimidin-7-yl)phenyl]-3-(trifluoromethyl)benzamide], the midpoint of inhibition, the IC50, lay at 0.3 µM and the inhibition at 10 µM stood at 86%. Take `Cc1cnc2cc(-c3ccncc3)nn2c1-c1cccc(NC(=O)c2cccc(C(F)(F)F)c2)c1` [Example 177, N-[3-(6-methyl-2-pyridin-4-ylpyrazolo[1,5-a]pyrimidin-7-yl)phenyl]-3-(trifluoromethyl)benzamide]: the inhibition at 10 µM came out at 95%. Besides, the IC50 under setting [1] worked out at 0.2 µM.

On to `CCOC(=O)c1cnn2c(-c3cccc(NS(=O)(=O)c4cccc(C(F)(F)F)c4)c3)ccnc12` [Example 12, ethyl 7-[3-({[3-(trifluoromethyl)phenyl]sulfonyl}amino)phenyl]pyrazolo[1,5-a]pyrimidine-3-carboxylate], for which the inhibition at 10 µM turned out to be 7%. Besides, under setting [1], the IC50 was more than 20 µM. For `CCOC(=O)c1cnn2c(-c3cccc(NC(=O)Cc4cccc(C(F)(F)F)c4)c3)ccnc12` [Example 97, ethyl 7-[3-({[3-(trifluoromethyl)phenyl]acetyl}amino)phenyl]pyrazolo[1,5-a]pyrimidine-3-carboxylate], in that order: 49% and 8.6 µM. Turning to `O=C(Nc1cccc(-c2ccnc3cc(-c4cccc(C(F)(F)F)c4)nn23)c1)c1cccc(C(F)(F)F)c1` [Example 137, 3-(trifluoromethyl)-N-(3-{2-[3-(trifluoromethyl)phenyl]pyrazolo[1,5-a]pyrimidin-7-yl}phenyl)benzamide], the IC50 under setting [1] is more than 10 µM. In the case of `O=C(Nc1cccc(-c2ccnc3cc(-c4ccnc(NCCN5CCNC5=O)c4)nn23)c1)c1cccc(C(F)(F)F)c1` [Example 268, N-{3-[2-(2-{[2-(2-oxoimidazolidin-1-yl)ethyl]amino}pyridin-4-yl)pyrazolo[1,5-a]pyrimidin-7-yl]phenyl}-3-(trifluoromethyl)benzamide], the inhibition at 10 µM stood at 96%. For the same molecule, the IC50 under setting [1] was 0.11 µM.

Regarding `CCOC(=O)c1cnn2c(-c3cccc(NC(=O)c4ccc(C(F)(F)F)c(F)c4)c3)ccnc12` [Example 9, ethyl 7-(3-{[3-fluoro-4-(trifluoromethyl)benzoyl]amino}phenyl)pyrazolo[1,5-a]pyrimidine-3-carboxylate], the inhibition at 10 µM is 20%. Moreover, under setting [1], the IC50 is more than 20 µM. On to `CCOC(=O)c1cnn2c(-c3cccc(NC(=O)Nc4ccc(F)c(Cl)c4)c3)ccnc12` [Example 25, ethyl 7-[3-({[(3-chloro-4-fluorophenyl)amino]carbonyl}amino)phenyl]pyrazolo[1,5-a]pyrimidine-3-carboxylate], for which the inhibition at 10 µM was determined as 76%. Further, the IC50 under setting [1] amounted to 0.6 µM.
